Reference: the NIST ThermoML archive (doi:10.1016/j.fluid.2010.03.010)
± gives the expanded uncertainty stated by the source.

Conditions: Liquid, Vibrating tube method

`CCOS(=O)(=O)[O-].CCn1cc[n+](C)c1` [1-ethyl-3-methylimidazolium ethyl sulfate] gave a mass density (342.15 K, 101.33 kPa) of 1208.29 ± 9.7 kg/m3, a mass density (343.15 K, 100 kPa) of 1207.4 ± 9.7 kg/m3 and a mass density (343.15 K, 101.33 kPa) of 1207.63 ± 9.7 kg/m3. The mass density (343.15 K, 250 kPa) was 1207.5 ± 9.7 kg/m3, the mass density (343.15 K, 500 kPa) was 1207.6 ± 9.7 kg/m3 and the mass density (343.15 K, 1010 kPa) was 1207.8 ± 9.7 kg/m3. It also gave a mass density (343.15 K, 1990 kPa) of 1208.3 ± 9.7 kg/m3, a mass density (343.15 K, 4990 kPa) of 1209.6 ± 9.7 kg/m3 and a mass density (343.15 K, 10010 kPa) of 1211.9 ± 9.7 kg/m3. It also gave a mass density (343.15 K, 14990 kPa) of 1214.1 ± 9.7 kg/m3, a mass density (343.15 K, 20010 kPa) of 1216.3 ± 9.7 kg/m3 and a mass density (343.15 K, 24990 kPa) of 1218.3 ± 9.8 kg/m3. It also gave a mass density (343.15 K, 30000 kPa) of 1220.4 ± 9.8 kg/m3, a mass density (343.15 K, 35010 kPa) of 1222.4 ± 9.8 kg/m3 and a mass density (343.15 K, 40000 kPa) of 1224.5 ± 9.8 kg/m3. For the same molecule, the mass density (343.15 K, 45000 kPa) was 1226.4 ± 9.8 kg/m3, the mass density (343.15 K, 50000 kPa) was 1228.4 ± 9.9 kg/m3 and the mass density (343.15 K, 54990 kPa) was 1230.3 ± 9.9 kg/m3. It also gave a mass density (343.15 K, 60000 kPa) of 1232.2 ± 9.9 kg/m3, a mass density (344.15 K, 101.33 kPa) of 1206.97 ± 9.7 kg/m3 and a mass density (345.15 K, 101.33 kPa) of 1206.32 ± 9.7 kg/m3. For the same molecule, the mass density (346.15 K, 101.33 kPa) was 1205.66 ± 9.7 kg/m3, the mass density (347.15 K, 101.33 kPa) was 1205.01 ± 9.7 kg/m3 and the mass density (348.15 K, 101.33 kPa) was 1204.36 ± 9.6 kg/m3. For the same molecule, the mass density (349.15 K, 101.33 kPa) was 1203.7 ± 9.6 kg/m3, the mass density (350.15 K, 101.33 kPa) was 1203.05 ± 9.6 kg/m3 and the mass density (351.15 K, 101.33 kPa) was 1202.4 ± 9.6 kg/m3. For the same molecule, the mass density (352.15 K, 101.33 kPa) was 1201.75 ± 9.6 kg/m3, the mass density (353.15 K, 100 kPa) was 1200.9 ± 9.6 kg/m3 and the mass density (353.15 K, 101.33 kPa) was 1201.09 ± 9.6 kg/m3. For the same molecule, the mass density (353.15 K, 250 kPa) was 1200.9 ± 9.6 kg/m3, the mass density (353.15 K, 500 kPa) was 1201 ± 9.6 kg/m3 and the mass density (353.15 K, 1010 kPa) was 1201.3 ± 9.6 kg/m3. For the same molecule, the mass density (353.15 K, 2000 kPa) was 1201.8 ± 9.6 kg/m3, the mass density (353.15 K, 4990 kPa) was 1203.1 ± 9.6 kg/m3 and the mass density (353.15 K, 10010 kPa) was 1205.5 ± 9.7 kg/m3. For the same molecule, the mass density (353.15 K, 15000 kPa) was 1207.6 ± 9.7 kg/m3, the mass density (353.15 K, 20000 kPa) was 1209.9 ± 9.7 kg/m3 and the mass density (353.15 K, 24990 kPa) was 1212 ± 9.7 kg/m3. The mass density (353.15 K, 30010 kPa) was 1214.2 ± 9.7 kg/m3, the mass density (353.15 K, 34990 kPa) was 1216.2 ± 9.8 kg/m3 and the mass density (353.15 K, 40000 kPa) was 1218.3 ± 9.8 kg/m3. For the same molecule, the mass density (353.15 K, 45000 kPa) was 1220.2 ± 9.8 kg/m3, the mass density (353.15 K, 50000 kPa) was 1222.3 ± 9.8 kg/m3 and the mass density (353.15 K, 54990 kPa) was 1224.2 ± 9.8 kg/m3. It also gave a mass density (353.15 K, 60000 kPa) of 1226.1 ± 9.8 kg/m3, a mass density (354.15 K, 101.33 kPa) of 1200.44 ± 9.6 kg/m3 and a mass density (355.15 K, 101.33 kPa) of 1199.79 ± 9.6 kg/m3. The mass density (356.15 K, 101.33 kPa) was 1199.14 ± 9.6 kg/m3, the mass density (357.15 K, 101.33 kPa) was 1198.49 ± 9.6 kg/m3 and the mass density (358.15 K, 101.33 kPa) was 1197.84 ± 9.6 kg/m3. The mass density (359.15 K, 101.33 kPa) was 1197.2 ± 9.6 kg/m3, the mass density (360.15 K, 101.33 kPa) was 1196.55 ± 9.6 kg/m3 and the mass density (361.15 K, 101.33 kPa) was 1195.9 ± 9.6 kg/m3. For the same molecule, the mass density (362.15 K, 101.33 kPa) was 1195.26 ± 9.6 kg/m3, the mass density (363.15 K, 100 kPa) was 1194.3 ± 9.6 kg/m3 and the mass density (363.15 K, 101.33 kPa) was 1194.61 ± 9.6 kg/m3. The mass density (363.15 K, 250 kPa) was 1194.4 ± 9.6 kg/m3, the mass density (363.15 K, 500 kPa) was 1194.5 ± 9.6 kg/m3 and the mass density (363.15 K, 1000 kPa) was 1194.7 ± 9.6 kg/m3. It also gave a mass density (363.15 K, 2000 kPa) of 1195.2 ± 9.6 kg/m3, a mass density (363.15 K, 4990 kPa) of 1196.6 ± 9.6 kg/m3 and a mass density (363.15 K, 10010 kPa) of 1199 ± 9.6 kg/m3. The mass density (363.15 K, 14990 kPa) was 1201.3 ± 9.6 kg/m3, the mass density (363.15 K, 19990 kPa) was 1203.6 ± 9.6 kg/m3 and the mass density (363.15 K, 25000 kPa) was 1205.7 ± 9.7 kg/m3. The mass density (363.15 K, 30000 kPa) was 1207.9 ± 9.7 kg/m3, the mass density (363.15 K, 34990 kPa) was 1210 ± 9.7 kg/m3 and the mass density (363.15 K, 40000 kPa) was 1212.2 ± 9.7 kg/m3. The mass density (363.15 K, 45000 kPa) was 1214.2 ± 9.7 kg/m3, the mass density (363.15 K, 50000 kPa) was 1216.2 ± 9.8 kg/m3 and the mass density (363.15 K, 55000 kPa) was 1218.2 ± 9.8 kg/m3. It also gave a mass density (363.15 K, 60000 kPa) of 1220.2 ± 9.8 kg/m3, a mass density (373.15 K, 100 kPa) of 1187.8 ± 9.5 kg/m3 and a mass density (373.15 K, 250 kPa) of 1187.9 ± 9.5 kg/m3. For the same molecule, the mass density (373.15 K, 500 kPa) was 1188 ± 9.5 kg/m3, the mass density (373.15 K, 1010 kPa) was 1188.2 ± 9.5 kg/m3 and the mass density (373.15 K, 2000 kPa) was 1188.7 ± 9.5 kg/m3. It also gave a mass density (373.15 K, 4990 kPa) of 1190.2 ± 9.5 kg/m3, a mass density (373.15 K, 10010 kPa) of 1192.6 ± 9.6 kg/m3 and a mass density (373.15 K, 14990 kPa) of 1194.9 ± 9.6 kg/m3. For the same molecule, the mass density (373.15 K, 20010 kPa) was 1197.3 ± 9.6 kg/m3, the mass density (373.15 K, 25000 kPa) was 1199.5 ± 9.6 kg/m3 and the mass density (373.15 K, 30010 kPa) was 1201.7 ± 9.6 kg/m3. It also gave a mass density (373.15 K, 34990 kPa) of 1203.9 ± 9.7 kg/m3, a mass density (373.15 K, 40000 kPa) of 1206.1 ± 9.7 kg/m3 and a mass density (373.15 K, 45000 kPa) of 1208.1 ± 9.7 kg/m3. The mass density (373.15 K, 50000 kPa) was 1210.2 ± 9.7 kg/m3, the mass density (373.15 K, 54990 kPa) was 1212.3 ± 9.7 kg/m3 and the mass density (373.15 K, 60000 kPa) was 1214.3 ± 9.8 kg/m3. It also gave a mass density (393.15 K, 100 kPa) of 1174.8 ± 9.4 kg/m3, a mass density (393.15 K, 250 kPa) of 1174.9 ± 9.4 kg/m3 and a mass density (393.15 K, 500 kPa) of 1175 ± 9.4 kg/m3. The mass density (393.15 K, 1010 kPa) was 1175.3 ± 9.4 kg/m3, the mass density (393.15 K, 2000 kPa) was 1175.8 ± 9.4 kg/m3 and the mass density (393.15 K, 4990 kPa) was 1177.3 ± 9.4 kg/m3. For the same molecule, the mass density (393.15 K, 10000 kPa) was 1179.9 ± 9.4 kg/m3, the mass density (393.15 K, 15000 kPa) was 1182.3 ± 9.5 kg/m3 and the mass density (393.15 K, 20010 kPa) was 1184.8 ± 9.5 kg/m3. It also gave a mass density (393.15 K, 24990 kPa) of 1187.1 ± 9.5 kg/m3, a mass density (393.15 K, 30010 kPa) of 1189.5 ± 9.5 kg/m3 and a mass density (393.15 K, 34990 kPa) of 1191.7 ± 9.6 kg/m3. It also gave a mass density (393.15 K, 40000 kPa) of 1194 ± 9.6 kg/m3, a mass density (393.15 K, 45010 kPa) of 1196.2 ± 9.6 kg/m3 and a mass density (393.15 K, 50000 kPa) of 1198.4 ± 9.6 kg/m3. The mass density (393.15 K, 55000 kPa) was 1200.5 ± 9.6 kg/m3, the mass density (393.15 K, 60000 kPa) was 1202.6 ± 9.7 kg/m3 and the mass density (413.15 K, 100 kPa) was 1161.7 ± 9.3 kg/m3. The mass density (413.15 K, 250 kPa) was 1161.8 ± 9.3 kg/m3, the mass density (413.15 K, 500 kPa) was 1162 ± 9.3 kg/m3 and the mass density (413.15 K, 1010 kPa) was 1162.2 ± 9.3 kg/m3. The mass density (413.15 K, 2000 kPa) was 1162.8 ± 9.3 kg/m3, the mass density (413.15 K, 4990 kPa) was 1164.4 ± 9.3 kg/m3 and the mass density (413.15 K, 10000 kPa) was 1167.2 ± 9.3 kg/m3. It also gave a mass density (413.15 K, 14990 kPa) of 1169.7 ± 9.4 kg/m3, a mass density (413.15 K, 20010 kPa) of 1172.4 ± 9.4 kg/m3 and a mass density (413.15 K, 24990 kPa) of 1174.8 ± 9.4 kg/m3. For the same molecule, the mass density (413.15 K, 30000 kPa) was 1177.4 ± 9.4 kg/m3, the mass density (413.15 K, 34990 kPa) was 1179.7 ± 9.5 kg/m3 and the mass density (413.15 K, 40000 kPa) was 1182.1 ± 9.5 kg/m3. For the same molecule, the mass density (413.15 K, 45000 kPa) was 1184.4 ± 9.5 kg/m3, the mass density (413.15 K, 50000 kPa) was 1186.7 ± 9.5 kg/m3 and the mass density (413.15 K, 54990 kPa) was 1188.9 ± 9.5 kg/m3. The mass density (413.15 K, 60000 kPa) was 1191.1 ± 9.6 kg/m3, the mass density (433.15 K, 100 kPa) was 1148.6 ± 9.2 kg/m3 and the mass density (433.15 K, 250 kPa) was 1148.7 ± 9.2 kg/m3. It also gave a mass density (433.15 K, 500 kPa) of 1148.8 ± 9.2 kg/m3, a mass density (433.15 K, 1010 kPa) of 1149.1 ± 9.2 kg/m3 and a mass density (433.15 K, 2000 kPa) of 1149.7 ± 9.2 kg/m3. It also gave a mass density (433.15 K, 4990 kPa) of 1151.4 ± 9.2 kg/m3, a mass density (433.15 K, 10010 kPa) of 1154.4 ± 9.2 kg/m3 and a mass density (433.15 K, 14990 kPa) of 1157.1 ± 9.3 kg/m3. It also gave a mass density (433.15 K, 20010 kPa) of 1159.9 ± 9.3 kg/m3, a mass density (433.15 K, 24990 kPa) of 1162.5 ± 9.3 kg/m3 and a mass density (433.15 K, 30010 kPa) of 1165.2 ± 9.3 kg/m3. It also gave a mass density (433.15 K, 34990 kPa) of 1167.6 ± 9.4 kg/m3, a mass density (433.15 K, 40000 kPa) of 1170.2 ± 9.4 kg/m3 and a mass density (433.15 K, 45010 kPa) of 1172.6 ± 9.4 kg/m3. The mass density (433.15 K, 50000 kPa) was 1175.1 ± 9.4 kg/m3, the mass density (433.15 K, 54990 kPa) was 1177.4 ± 9.4 kg/m3 and the mass density (433.15 K, 60000 kPa) was 1179.7 ± 9.5 kg/m3.
